Reference: PMC9440028, “Neurotensin analogs by fluoroglycosylation at N^ω-carbamoylated arginines for PET imaging of NTS1-positive tumors” (Scientific Reports, 2022)
Read-outs that look alike come from different tables or passages of the source.

Assays:
[1] = target: T1, hNTS1R (Homo sapiens, UniProt P30989); assay: Radioligand competition binding with [^3H]UR-MK300 at intact HT-29 cells; conditions: [^3H]UR-MK300 (Kd = […], c = 1 nM), 23 °C
T1 construct: at hNTS1R expressing intact human HT-29 colon carcinoma cells; endogenous in cells; host or cells: HT-29 human colon carcinoma cells (intact)
Experimental: Unspecific binding was subtracted from total binding to obtain specific binding. Data analysis was performed by plotting % specifically bound radioligand (100% = specifically bound radioligand in the absence of competitor) over log(concentration of competitor) followed by a four-parameter logistic fit (SigmaPlot 12.5, Systat Software). […] The Ki values from individual experiments were transformed to pKi values, followed by the calculation of mean pKi values ± SEM.

[2] = In vitro stability in human plasma/PBS (1:2 v/v) at 37 °C; assay type: in vitro ADME; conditions: human blood plasma/PBS (1:2 v/v), read-out: % intact peptide in human plasma after the given incubation time
Experimental: (§1) The metabolic stabilities of 11–14, 16 and 18–21 (cf. Table 2) were investigated in human blood plasma/PBS (136.9 mM NaCl, 2.68 mM KCl, 5.62 mM Na2HPO4, 1.09 mM NaH2PO4 and 1.47 mM KH2PO4) pH 7.4 (1:2, v/v) according to a described procedure[13] with the following modifications: 5 mM stock solutions in EtOH/0.04% aq TFA (30:70 v/v) (11–13), MeCN/0.025% aq TFA (30:70 v/v) (14), MeCN/0.04% aq TFA (30:70 v/v) (16, 19 and 21) or EtOH/H2O (40:60 v/v) (18, 20) were used for the addition of the peptides to plasma/PBS (1:2 v/v). As the RP-HPLC purity of 1-Methyl-D-Trp (internal standard, IS) was < 95% (data not shown), the compound was purified by preparative HPLC to give a purity of > 99%. The concentration of the peptides in plasma/PBS (1:2 v/v) was 80 and 4 µM (recovery determination) or 100 µM (stability tests). The obtained recoveries and the recovery ratios (peptide/internal standard) are summarized in Supplementary Table S1. Data analysis was based on UV detection at 220 nm. Additionally, the stability of compound 21 was investigated in mouse plasma/PBS (1:2 v/v) using the same procedure as described above for human plasma. Mouse plasma was obtained by the collection of blood from anaesthetized mice via cardiac puncture using a syringe that was rinsed with sodium heparin (25,000 I.E., Ratiopharm, Ulm, Germany). The heparinized blood was transferred into a 2-mL reaction vessel, followed by centrifugation (1200 g, 4 °C, 10 min). The supernatants were pooled, centrifuged again (1200 g, 4 °C, 10 min), the plasma was aliquoted and stored at − 80 °C. The concentration of 21 in plasma/PBS (1:2 v/v) was 80 and 4 μM (recovery determination) or 100 μM (stability tests). The obtained recoveries and the recovery ratios (21/IS) are summarized in Supplementary Table S2. Data analysis was based on UV detection at 220 nm.

[3] = In vitro stability in mouse plasma/PBS (1:2 v/v) at 37 °C; assay type: in vitro ADME; conditions: read-out: % intact peptide in mouse plasma after the given incubation time
Experimental: as §1

T1 sequence (P30989 whole entry): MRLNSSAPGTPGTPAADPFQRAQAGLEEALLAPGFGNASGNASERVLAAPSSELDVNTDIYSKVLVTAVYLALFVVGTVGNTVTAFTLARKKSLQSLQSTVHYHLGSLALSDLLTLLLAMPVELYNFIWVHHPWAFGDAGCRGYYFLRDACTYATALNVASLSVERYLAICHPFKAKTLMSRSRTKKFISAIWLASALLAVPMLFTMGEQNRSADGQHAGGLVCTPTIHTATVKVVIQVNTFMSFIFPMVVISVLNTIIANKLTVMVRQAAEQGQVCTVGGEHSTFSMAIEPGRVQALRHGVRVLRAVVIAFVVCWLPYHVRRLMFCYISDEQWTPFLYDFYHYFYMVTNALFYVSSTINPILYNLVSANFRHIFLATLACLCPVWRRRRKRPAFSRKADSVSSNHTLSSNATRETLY

CN[C@@H](CCCNC(=N)NC(=O)NCCCCNC(=O)CCc1cn([C@@H]2O[C@H](CF)[C@@H](O)[C@H](O)[C@H]2O)nn1)C(=O)N[C@@H](CCCNC(=N)N)C(=O)N1CCC[C@H]1C(=O)N[C@@H](Cc1ccc(O)cc1)C(=O)N[C@H](C(=O)N[C@@H](CC(C)C)C(=O)O)C(C)(C)C [Compound 21, N^α-methyl-(N^ω-{N-[4-(3-{1-[6-deoxy-6-fluoro-β-D-glucopyranosyl]-1H-1,2,3-triazol-4-yl}propanoyl)aminobutyl]aminocarbonyl})Arg-Arg-Pro-Tyr-2-tert-butyl-Gly-Leu-OH tris(hydrotrifluoroacetate)]
Ki ([1]; mean): one-digit nanomolar range
Ki ([1]; mean, read-out: Ki (converted)): 4.3 nM
Ki ([1]; read-out: pKi ± SEM (converted)): 4.07 nM
remaining at 1 h, 100 µM ([2]; pH 7.4, 1 h): > 99%
remaining at 6 h, 100 µM ([2]; pH 7.4, 6 h): > 99%
remaining at 24 h, 100 µM ([2]; pH 7.4, 24 h): > 99%
remaining at 48 h, 100 µM ([2]; pH 7.4, 48 h): 99 ± 1%
remaining at 10 min, 100 µM ([3]; pH 7.4, 10 min): > 99%
remaining at 1 h, 100 µM ([3]; pH 7.4, 1 h): > 99%
remaining at 2 h, 100 µM ([3]; pH 7.4, 2 h): > 99%
remaining at 6 h, 100 µM ([3]; pH 7.4, 6 h): > 99%
remaining at 24 h, 100 µM ([3]; pH 7.4, 24 h): > 99%
remaining at 48 h, 100 µM ([3]; pH 7.4, 48 h): > 99%
